Article PMC5876368, “Evaluation of a dimeric-cRGD peptide for targeted PET-CT imaging of peripheral angiogenesis in diabetic mice” (Scientific Reports, 2018)

Assays:
αV β3 integrin = target: T1, αV β3 integrin (Mus musculus, UniProt O54890+P43406); test: PET-CT imaging and gamma well counting of hindlimb uptake after femoral artery ligation, DM vs non-DM mice; assay type: in vivo; settings: mice 1 week after femoral artery ligation
T1 construct: from tissue; host or cells: hindlimb skeletal muscle of live C57BL/6 mice (ischemic and non-ischemic, DM and non-DM)
T1 sequence (P43406 31-885 limits assumed): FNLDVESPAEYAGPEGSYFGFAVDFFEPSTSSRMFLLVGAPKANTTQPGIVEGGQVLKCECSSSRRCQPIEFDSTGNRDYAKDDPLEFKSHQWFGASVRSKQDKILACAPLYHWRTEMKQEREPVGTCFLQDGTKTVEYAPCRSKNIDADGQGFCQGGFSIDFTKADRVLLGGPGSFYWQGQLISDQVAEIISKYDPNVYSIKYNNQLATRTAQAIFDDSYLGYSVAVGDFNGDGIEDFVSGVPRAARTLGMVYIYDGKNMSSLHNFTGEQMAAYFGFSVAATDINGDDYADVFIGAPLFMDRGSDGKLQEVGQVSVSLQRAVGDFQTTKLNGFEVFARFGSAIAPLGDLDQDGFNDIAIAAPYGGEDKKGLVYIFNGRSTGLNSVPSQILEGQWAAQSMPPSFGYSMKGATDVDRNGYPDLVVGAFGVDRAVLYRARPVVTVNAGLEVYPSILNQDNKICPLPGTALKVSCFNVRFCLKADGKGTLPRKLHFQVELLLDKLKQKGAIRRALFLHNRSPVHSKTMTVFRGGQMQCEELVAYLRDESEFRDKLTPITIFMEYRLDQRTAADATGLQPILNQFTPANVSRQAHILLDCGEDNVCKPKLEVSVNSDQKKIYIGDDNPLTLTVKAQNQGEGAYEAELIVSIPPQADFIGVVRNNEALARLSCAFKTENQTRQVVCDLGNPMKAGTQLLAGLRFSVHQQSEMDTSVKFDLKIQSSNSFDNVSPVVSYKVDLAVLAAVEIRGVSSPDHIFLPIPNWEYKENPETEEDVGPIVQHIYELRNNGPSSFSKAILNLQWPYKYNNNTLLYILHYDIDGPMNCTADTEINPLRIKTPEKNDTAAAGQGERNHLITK
T1 sequence (P43406 887-1044 partner limits assumed): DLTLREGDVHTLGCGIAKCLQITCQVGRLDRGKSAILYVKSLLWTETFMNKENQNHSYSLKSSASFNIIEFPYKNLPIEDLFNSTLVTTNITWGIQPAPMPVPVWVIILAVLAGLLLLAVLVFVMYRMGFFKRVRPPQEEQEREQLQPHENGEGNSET
T1 sequence (O54890 26-787): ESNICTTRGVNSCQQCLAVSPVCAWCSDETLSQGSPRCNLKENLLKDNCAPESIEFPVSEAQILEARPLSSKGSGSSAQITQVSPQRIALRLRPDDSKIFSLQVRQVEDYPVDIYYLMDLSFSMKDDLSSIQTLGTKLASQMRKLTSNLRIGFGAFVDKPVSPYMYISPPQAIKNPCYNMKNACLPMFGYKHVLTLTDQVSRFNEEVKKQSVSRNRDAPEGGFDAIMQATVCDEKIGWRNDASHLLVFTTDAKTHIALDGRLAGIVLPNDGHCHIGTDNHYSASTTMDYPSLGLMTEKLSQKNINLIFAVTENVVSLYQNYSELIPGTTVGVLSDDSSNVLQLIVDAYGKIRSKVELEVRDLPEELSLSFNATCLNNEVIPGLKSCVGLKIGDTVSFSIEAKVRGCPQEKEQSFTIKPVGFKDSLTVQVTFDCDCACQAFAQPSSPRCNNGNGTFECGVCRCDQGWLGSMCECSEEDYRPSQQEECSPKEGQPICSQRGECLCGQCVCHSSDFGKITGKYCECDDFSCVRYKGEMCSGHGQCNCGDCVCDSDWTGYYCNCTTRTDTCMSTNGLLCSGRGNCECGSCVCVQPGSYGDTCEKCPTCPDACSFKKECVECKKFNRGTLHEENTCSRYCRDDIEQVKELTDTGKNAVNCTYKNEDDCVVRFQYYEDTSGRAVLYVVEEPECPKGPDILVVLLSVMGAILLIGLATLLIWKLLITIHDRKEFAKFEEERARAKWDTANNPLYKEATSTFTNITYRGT
Procedure: All animals underwent hindlimb occlusion of the right femoral artery and a sham operation on the left hindlimb, following previously-described procedures. Briefly, a small incision was made on the right leg to expose the femoral vasculature, and dual ligation of the femoral artery was performed distal to the profundus branch to induce unilateral hindlimb ischemia. All mice were allowed to recover for 7 days after surgery.
One week after occlusion, DM and non-DM mice (n = 15) were injected with 6.81 ± 0.536 MBq of ^64Cu-NOTA-PEG4-cRGD2 via the jugular vein and 60 minutes later in vivo microPET-CT imaging was performed using a small animal dedicated Inveon system (Siemens Healthcare USA). An additional group of non-diabetic mice (n = 4) was injected with 7.21 ± 2.31 MBq of ^64Cu-acetate to study differential organ biodistribution of ^64Cu-NOTA-PEG4-cRGD2. […]
The microPET and microCT images were reconstructed using the OSEM/3D algorithm (Siemens Healthcare USA) and the cone-beam technique (Cobra Exim), respectively. MicroPET images were fused with microCT images and quantified using a semiautomated approach developed and evaluated previously. […] To validate the accuracy of the quantitative targeted imaging approach, image-derived results were compared with the gamma well counting analysis of the corresponding tissue samples. […]

[1] = Biodistribution and clearance in mice (gamma well counting and PET-CT); assay type: in vivo; settings: one hour after jugular vein injection, gamma well counting
Procedure: One week after occlusion, 5 groups of animals were injected with 6.81 ± 0.536 MBq of ^64Cu-NOTA-PEG4-cRGD2 via the jugular vein and at various time points (30 min n = 3, 1 hr n = 3, 2 hr n = 3, 4 hr n = 3, and 24 hr n = 2), different organs were excised and subjected to gamma well counting. The mass and radioactivity of tissue sections were assessed with a Voyager Pro. (Ohaus, USA) and Wizard2 gamma well counter (PerkinElmer, USA) respectively. The ^64Cu signal was then corrected to account for background radioactivity, radioactive decay of the samples, and tissue weight.
One week after occlusion, DM and non-DM mice (n = 15) were injected with 6.81 ± 0.536 MBq of ^64Cu-NOTA-PEG4-cRGD2 via the jugular vein and 60 minutes later in vivo microPET-CT imaging was performed using a small animal dedicated Inveon system (Siemens Healthcare USA). […]
Skeletal muscles from both the ischemic and non-ischemic hindlimbs were excised and separated into distal and proximal sections based on the location of the ligature in the ischemic limb and anatomical landmarks in the non-ischemic limb. The mass and radioactivity of tissue sections were assessed with a Voyager Pro. […] The ^64Cu signal was then corrected to account for background radioactivity, radioactive decay of the samples, and tissue weight.

CC(=O)[O-].CC(=O)[O-].[64Cu+2] [^64Cu-acetate]
retention in ischemic relative to non-ischemic hindlimb (αV β3 integrin): comparable accumulation in both limbs | organ uptake in liver, gallbladder, kidneys and intestines [1]: > 20 %I.D./g
